Source: ChEMBL document CHEMBL3856276, “Design, Synthesis, and Biological Evaluation of Novel Tetrahydroprotoberberine Derivatives (THPBs) as Selective α1A-Adrenoceptor Antagonists” (J Med Chem, 2016)

Experiments:
[1] = molecular target: T1, Alpha-1B adrenergic receptor (Rattus norvegicus, UniProt P15823); assay: Antagonist activity at alpha1B adrenoceptor in Sprague-Dawley rat aorta assessed as inhibition of norepinephrine-induced smooth muscle contraction after 20 mins
T1 sequence (P15823 whole entry): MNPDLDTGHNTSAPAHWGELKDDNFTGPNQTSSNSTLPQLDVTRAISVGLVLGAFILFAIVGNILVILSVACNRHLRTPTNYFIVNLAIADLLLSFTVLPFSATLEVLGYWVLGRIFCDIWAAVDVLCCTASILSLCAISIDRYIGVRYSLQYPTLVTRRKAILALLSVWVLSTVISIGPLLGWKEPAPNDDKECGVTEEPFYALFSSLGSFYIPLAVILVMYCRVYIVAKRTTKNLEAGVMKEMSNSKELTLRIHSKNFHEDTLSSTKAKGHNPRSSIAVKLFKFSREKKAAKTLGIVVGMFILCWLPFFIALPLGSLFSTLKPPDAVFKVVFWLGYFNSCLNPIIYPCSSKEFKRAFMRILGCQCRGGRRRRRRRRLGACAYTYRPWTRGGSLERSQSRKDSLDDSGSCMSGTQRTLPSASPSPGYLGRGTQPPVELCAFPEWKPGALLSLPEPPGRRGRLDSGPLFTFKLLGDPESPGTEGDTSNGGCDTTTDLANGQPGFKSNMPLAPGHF

[2] = tested on: Rattus norvegicus; assay: Inhibition of micturition frequency in po dosed Sprague-Dawley rat benign prostatic hyperplasia model administered 20 mins followed by distilled watering loading measured for 2 hrs; format: functional
[3] = molecular target: Voltage-gated inwardly rectifying potassium channel KCNH2 (Homo sapiens, UniProt Q12809); assay: Inhibition of human ERG
[4] = Toxicity in patient assessed as orthostatic hypotension; settings: human, in vivo
[5] = molecular target: T2, Alpha-1A adrenergic receptor (Homo sapiens) (UniProt P35348); assay: Antagonist activity at human full-length N-terminal SNAP-tagged alpha1A adrenoceptor expressed in HEK293 cells assessed as inhibition of agonist-induced calcium mobilization at 10 uM preincubated for 10 mins followed by agonist addition by fluo-4 AM dye-based assay relative to control; format: functional, cell-based
T2 sequence (whole entry): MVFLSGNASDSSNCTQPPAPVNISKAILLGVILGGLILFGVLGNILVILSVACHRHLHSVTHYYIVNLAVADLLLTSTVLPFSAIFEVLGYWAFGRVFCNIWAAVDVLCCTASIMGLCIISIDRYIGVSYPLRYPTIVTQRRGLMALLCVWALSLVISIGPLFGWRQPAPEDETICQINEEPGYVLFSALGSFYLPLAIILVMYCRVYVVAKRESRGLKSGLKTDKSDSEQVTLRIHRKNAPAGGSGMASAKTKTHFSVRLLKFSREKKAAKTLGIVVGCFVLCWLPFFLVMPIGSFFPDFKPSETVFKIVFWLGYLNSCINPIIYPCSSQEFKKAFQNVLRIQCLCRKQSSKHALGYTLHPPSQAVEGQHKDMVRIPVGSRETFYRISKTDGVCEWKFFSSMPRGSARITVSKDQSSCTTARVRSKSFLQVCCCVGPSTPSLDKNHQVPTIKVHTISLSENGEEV

[6] = molecular target: T3, Alpha-1A adrenergic receptor (Rattus norvegicus, UniProt P43140); assay: Antagonist activity at alpha1A adrenoceptor in Sprague-Dawley rat urethra assessed as inhibition of norepinephrine-induced smooth muscle contraction after 20 mins
T3 sequence (P43140 whole entry): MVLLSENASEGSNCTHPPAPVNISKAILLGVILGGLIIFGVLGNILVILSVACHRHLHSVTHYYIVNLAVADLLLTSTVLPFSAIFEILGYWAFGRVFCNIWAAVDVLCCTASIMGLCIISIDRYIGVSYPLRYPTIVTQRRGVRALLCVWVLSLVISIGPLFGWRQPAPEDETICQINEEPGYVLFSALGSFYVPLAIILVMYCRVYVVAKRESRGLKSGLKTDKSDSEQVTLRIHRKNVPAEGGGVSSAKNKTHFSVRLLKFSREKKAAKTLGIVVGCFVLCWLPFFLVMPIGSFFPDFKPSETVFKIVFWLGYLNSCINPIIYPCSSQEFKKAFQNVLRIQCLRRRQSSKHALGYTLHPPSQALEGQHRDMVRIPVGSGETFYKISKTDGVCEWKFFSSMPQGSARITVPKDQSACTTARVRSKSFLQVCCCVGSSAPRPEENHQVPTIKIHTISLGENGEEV

[7] = tested on: Rattus norvegicus; assay: Increase in voided volume in po dosed Sprague-Dawley rat benign prostatic hyperplasia model administered 20 mins followed by distilled watering loading measured for 2 hrs; format: functional

Chain of Voltage-gated inwardly rectifying potassium channel KCNH2 (Q12809 whole entry): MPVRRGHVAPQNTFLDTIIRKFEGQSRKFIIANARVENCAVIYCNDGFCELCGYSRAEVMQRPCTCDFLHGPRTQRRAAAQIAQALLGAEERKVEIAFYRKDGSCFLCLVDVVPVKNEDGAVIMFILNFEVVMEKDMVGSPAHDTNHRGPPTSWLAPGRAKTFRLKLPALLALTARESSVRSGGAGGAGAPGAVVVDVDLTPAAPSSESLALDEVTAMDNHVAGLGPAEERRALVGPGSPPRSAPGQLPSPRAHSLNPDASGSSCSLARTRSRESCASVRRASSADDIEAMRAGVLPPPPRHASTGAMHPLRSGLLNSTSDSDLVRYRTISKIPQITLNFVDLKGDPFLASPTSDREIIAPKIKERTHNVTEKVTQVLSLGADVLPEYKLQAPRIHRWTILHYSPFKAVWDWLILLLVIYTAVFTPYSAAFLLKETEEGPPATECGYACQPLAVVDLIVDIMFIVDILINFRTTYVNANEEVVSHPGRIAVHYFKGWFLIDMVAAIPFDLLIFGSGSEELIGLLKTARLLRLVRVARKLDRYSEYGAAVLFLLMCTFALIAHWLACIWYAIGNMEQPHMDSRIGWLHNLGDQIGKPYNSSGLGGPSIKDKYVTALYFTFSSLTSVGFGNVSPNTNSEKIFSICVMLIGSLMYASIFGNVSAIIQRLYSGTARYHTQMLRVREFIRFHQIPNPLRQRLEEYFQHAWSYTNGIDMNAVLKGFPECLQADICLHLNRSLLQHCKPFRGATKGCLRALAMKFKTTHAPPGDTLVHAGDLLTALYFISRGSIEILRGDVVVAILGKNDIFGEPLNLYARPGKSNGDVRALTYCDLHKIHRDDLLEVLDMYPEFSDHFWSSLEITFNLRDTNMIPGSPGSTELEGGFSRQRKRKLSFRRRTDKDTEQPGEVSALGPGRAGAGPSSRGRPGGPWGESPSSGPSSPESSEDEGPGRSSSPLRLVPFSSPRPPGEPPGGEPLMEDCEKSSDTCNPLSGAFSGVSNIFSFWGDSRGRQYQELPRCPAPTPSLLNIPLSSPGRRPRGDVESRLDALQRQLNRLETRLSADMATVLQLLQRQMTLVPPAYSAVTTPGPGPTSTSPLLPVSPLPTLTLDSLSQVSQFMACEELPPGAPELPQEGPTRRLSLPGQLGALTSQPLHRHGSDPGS

C[C@H](Cc1cc2c(c(C(N)=O)c1)N(CCCO)CC2)NCCOc1ccccc1OCC(F)(F)F [SILODOSIN]
IC50 [1]: 90.1 nM
inhibition [2]: Dose-dependent effect
IC50 [3]: 8200 nM
Activity [4]: 2.6%
inhibition [5]: 100%
IC50 [6]: 0.8 nM
Activity [7]: Dose-dependent effect
